Laboratory results published in the supplement of paper PMC13380429.

Key:
[1] = system: A549-ACE2 infected with SARS-CoV-2; experiment: cell count relative to DMSO; higher = less toxic; details: 24 h
Caco-2 [2] = experiment: cell viability relative to DMSO; higher = less toxic; details: 72 h
Calu-3 [3] = experiment: as above; details: 72 h
HepG2 [4] = experiment: as above; details: 72 h
U2OS [5] = experiment: as above; details: 72 h
Vero E6 [6] = experiment: as above; details: 72 h
[7] = system: A549-ACE2 infected with SARS-CoV-2; experiment: SARS-CoV-2 infection rate relative to DMSO; higher = more infection; details: 24 h
A549-ACE2 [8] = experiment: phospholipidosis EC50; higher = less potent phospholipidosis inducer
A549-ACE2 [9] = experiment: drug-induced phospholipidosis relative to tamoxifen; higher = more phospholipidosis
[10] = system: A549-ACE2 infected with SARS-CoV-2; experiment: morphology score (similarity to uninfected cells); higher = more like uninfected cells; details: 24 h
Caco-2 [11] = experiment: relative viability EC50 (midpoint between 100% and the lowest measured viability); higher = less toxic; details: 72 h
Calu-3 [12] = experiment: as above; details: 72 h
HepG2 [13] = experiment: as above; details: 72 h
U2OS [14] = experiment: as above; details: 72 h
Vero E6 [15] = experiment: as above; details: 72 h
Caco-2 [16] = experiment: drug sensitivity score (DSS) for viability; higher = more toxic; extreme values may be limits of the assay; details: 72 h
Calu-3 [17] = experiment: as above; details: 72 h
HepG2 [18] = experiment: as above; details: 72 h
U2OS [19] = experiment: as above; details: 72 h
Vero E6 [20] = experiment: as above; details: 72 h

O=C(NCCN1CCC2(CC1)C(=O)NCN2c1cccc(F)c1)c1ccc(F)c(F)c1 [ML298]
Details	SARS-CoV-2 infection rate [%]	cell count [%]	cell viability [%]	morphology score	phospholipidosis EC50 [µM]
A549-ACE2 [8], 24 h	–	–	–	–	7.34
A549-ACE2 [8], 48 h	–	–	–	–	9.19
A549-ACE2 [8], 72 h	–	–	–	–	8.25
Caco-2 [2], 1 nM	–	–	98	–	–
Caco-2 [2], 10 nM	–	–	99.7	–	–
Caco-2 [2], 100 nM	–	–	95.2	–	–
Caco-2 [2], 1000 nM	–	–	91.1	–	–
Caco-2 [2], 10000 nM	–	–	89.9	–	–
Calu-3 [3], 1 nM	–	–	96.7	–	–
Calu-3 [3], 10 nM	–	–	104	–	–
Calu-3 [3], 100 nM	–	–	101	–	–
Calu-3 [3], 1000 nM	–	–	93.9	–	–
Calu-3 [3], 10000 nM	–	–	89.1	–	–
HepG2 [4], 1 nM	–	–	97.3	–	–
HepG2 [4], 10 nM	–	–	103	–	–
HepG2 [4], 100 nM	–	–	101	–	–
HepG2 [4], 1000 nM	–	–	97.7	–	–
HepG2 [4], 10000 nM	–	–	89.1	–	–
U2OS [5], 1 nM	–	–	103	–	–
U2OS [5], 10 nM	–	–	102	–	–
U2OS [5], 100 nM	–	–	104	–	–
U2OS [5], 1000 nM	–	–	98.5	–	–
U2OS [5], 10000 nM	–	–	94.2	–	–
Vero E6 [6], 1 nM	–	–	101	–	–
Vero E6 [6], 10 nM	–	–	105	–	–
Vero E6 [6], 100 nM	–	–	102	–	–
Vero E6 [6], 1000 nM	–	–	107	–	–
Vero E6 [6], 10000 nM	–	–	89.8	–	–
[1], 0.3 µM	–	102	–	–	–
[1], 3 µM	–	102	–	–	–
[1], 10 µM	–	116	–	–	–
[1], 30 µM	–	95	–	–	–
[7], 0.3 µM	100	–	–	–	–
[7], 3 µM	83	–	–	–	–
[7], 10 µM	32	–	–	–	–
[7], 30 µM	25	–	–	–	–
[10], 0.3 µM	–	–	–	-0.08	–
[10], 3 µM	–	–	–	0.43	–
[10], 10 µM	–	–	–	0.74	–
[10], 30 µM	–	–	–	0.22	–

drug-induced phospholipidosis [%], A549-ACE2 [9]
Details	0.3 µM	0.833333 µM	3.33333 µM	6.66667 µM	10 µM	30 µM
24 h	1.51	2.03	17.2	46.9	89.3	113
48 h	7.03	7.88	17.8	36.7	79.7	127
72 h	6.97	7.75	18.7	39.7	90.5	–

Details	drug sensitivity score	relative viability EC50 [µM]
Caco-2 [11]	–	> 10
Caco-2 [16]	0	–
Calu-3 [12]	–	> 10
Calu-3 [17]	0.1	–
HepG2 [13]	–	> 10
HepG2 [18]	0	–
U2OS [14]	–	> 10
U2OS [19]	0	–
Vero E6 [15]	–	> 10
Vero E6 [20]	0	–

Nc1ncccc1-c1nc2ccc(-c3ccccc3)nc2n1-c1ccc(C2(N)CCC2)cc1 [ARQ-092]
Details	SARS-CoV-2 infection rate [%]	cell count [%]	cell viability [%]	morphology score	phospholipidosis EC50 [µM]
A549-ACE2 [8], 24 h	–	–	–	–	3.22
A549-ACE2 [8], 48 h	–	–	–	–	1.25
Caco-2 [2], 1 nM	–	–	94.7	–	–
Caco-2 [2], 10 nM	–	–	97.9	–	–
Caco-2 [2], 100 nM	–	–	87.4	–	–
Caco-2 [2], 1000 nM	–	–	68	–	–
Caco-2 [2], 10000 nM	–	–	52.8	–	–
Calu-3 [3], 1 nM	–	–	98.3	–	–
Calu-3 [3], 10 nM	–	–	108	–	–
Calu-3 [3], 100 nM	–	–	95.7	–	–
Calu-3 [3], 1000 nM	–	–	76.3	–	–
Calu-3 [3], 10000 nM	–	–	8.8	–	–
HepG2 [4], 1 nM	–	–	102	–	–
HepG2 [4], 10 nM	–	–	95.2	–	–
HepG2 [4], 100 nM	–	–	90.4	–	–
HepG2 [4], 1000 nM	–	–	72.4	–	–
HepG2 [4], 10000 nM	–	–	51.4	–	–
U2OS [5], 1 nM	–	–	99.8	–	–
U2OS [5], 10 nM	–	–	99.4	–	–
U2OS [5], 100 nM	–	–	102	–	–
U2OS [5], 1000 nM	–	–	91.9	–	–
U2OS [5], 10000 nM	–	–	68.2	–	–
Vero E6 [6], 1 nM	–	–	95.1	–	–
Vero E6 [6], 10 nM	–	–	102	–	–
Vero E6 [6], 100 nM	–	–	86.5	–	–
Vero E6 [6], 1000 nM	–	–	82.2	–	–
Vero E6 [6], 10000 nM	–	–	84.7	–	–
[1], 0.3 µM	–	96	–	–	–
[1], 3 µM	–	98	–	–	–
[1], 10 µM	–	94	–	–	–
[1], 30 µM	–	46	–	–	–
[7], 0.3 µM	107	–	–	–	–
[7], 3 µM	51	–	–	–	–
[7], 10 µM	25	–	–	–	–
[7], 30 µM	78	–	–	–	–
[10], 0.3 µM	–	–	–	-0.1	–
[10], 3 µM	–	–	–	0.72	–
[10], 10 µM	–	–	–	0.54	–
[10], 30 µM	–	–	–	-0.21	–

drug-induced phospholipidosis [%], A549-ACE2 [9]
Details	0.3 µM	0.833333 µM	3.33333 µM	6.66667 µM	10 µM	30 µM
24 h	1.77	12	89.4	198	175	50.3
48 h	3.37	9.82	86.6	–	138	36.8
72 h	2.32	7.77	–	–	–	–

Details	drug sensitivity score	relative viability EC50 [µM]
Caco-2 [16]	7.1	–
Calu-3 [12]	–	1.52
Calu-3 [17]	8.7	–
HepG2 [18]	6.1	–
U2OS [19]	2.7	–
Vero E6 [15]	–	> 10
Vero E6 [20]	3.3	–
